Key:
OATP = experiment: Liver partitioning / plasma PK study with and without rifampicin (pan-OATP inhibitor); format: in vivo, cynomolgus monkeys; conditions: male, cynomolgus monkey, plasma, with rifampicin 30 mg/kg IV (pan-OATP inhibitor), cynomolgus monkeys, 5 mg/kg oral, Pretreatment with Rifampicin 30 mg/kg
Experimental: (§1) To further investigate the liver partitioning properties of the compound of Example 1, the compound was co-administered with rifampicin (RIF, pan-OATP inhibitor) in cynomolgus monkeys in vivo and hepatic uptake experiments were performed in monkey hepatocytes in vitro. […] Therefore the coadministration experiments as described below in more detail were conducted to administer Example 1 compound orally (5 mg/kg) in the absence and presence of IV administration of RIF (30 mg/kg).
(§2) To assess the OATP (organic anion transporting polypeptides)-mediated liver specific delivery of the Example 1 compound, plasma pharmacokinetics (PK) was evaluated in cynomolgus monkeys. The in-life phase of the cyno PK studies was conducted at Covance Laboratories (Madison, Wis.). Animals were housed and handled in accordance with the Guide for the Care and Use of Laboratory Animals, Institute of Laboratory Animal Resources. The protocols were reviewed and approved by the Institutional Animal Care and Use Committees (IACUC). Male Cynomolgus monkeys weighing approximately 3 kg were used for the in-life portion of the PK studies. The animals were fasted overnight prior to dosing and up to 4 hours after dosing. The animals were administered with the test compound (Example 1) alone or coadministered with 30 mg/kg rifampicin prior to test compound administration at 5 mg/kg via oral gavage (3 monkeys per group). The aqueous formulation contains dimethyl sulfoxide, kolliphor, labrasol and propylene glycol. Approximately 0.5 mL blood samples were collected from each animal and analyzed for test compound (Example 1) concentrations. For LC-MS/MS analysis, plasma samples were prepared through protein precipitation extraction and analyzed on a Sciex API 5500 LC-MS/MS instrument (Applied Biosystems, Foster City, Calif.). Analyte was eluted on a 1.7 μm 50×2.1 mm Acquity UPLC BEH C18 column (Waters, Milford, Mass.) using mobile phases containing 0.1% formic acid and a linear gradient from 60% to 95% acetonitrile at a flow rate of 800 μL/min. Noncompartmental pharmacokinetic parameters were calculated using Phoenix 32 (Pharsight Corporation, Mountain View, Calif.). […]

[1] = as above; format: in vivo, cynomolgus monkeys
Experimental: as §1, §2

monkey hepatocytes = experiment: In vitro hepatic uptake in monkey hepatocytes; format: in vitro ADME; conditions: data not shown
Experimental: as §1

HepG2 cells = experiment: In vitro De Novo Lipogenesis (DNL) assay, 13C-acetate incorporation into palmitic acid; format: cell-based; conditions: Homo sapiens, 1 hour preincubation, 24 hours with 10 mM 13C-labeled acetate
Procedure, shortened: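 HepG2 cells were preincubated with compound for 1 h, then given 10 mM 13C-acetate for 24 h at 37 °C. Lipids were saponified with KOH/ethanol at 70 °C, and palmitate carrying 3–7 13C was quantified by RapidFire-QTOF MS. This signal was normalized to oleate and plotted against compound concentration.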

[2] = Rat liver/plasma ratio determination; format: in vivo, male Sprague-Dawley (SD) rats; conditions: male SD rats, single oral dose 5 mg/kg or 10 mg/kg
Experimental: Liver to plasma (L/P) ratios of certain example compounds were determined in male Sprague-Dawley (SD) rats 2 hours and 24 hours after their administration.
The in vivo phases of the rat L/P ratio determinations for example compounds were conducted at Covance Laboratories (Madison, Wis.) or Charles River Laboratories (Worcester, Wash.). Animals were housed and handled in accordance with the Guide for the Care and Use of Laboratory Animals, Institute of Laboratory Animal Resources. The protocols were reviewed and approved by Institutional Animal Care and Use Committees (IACUC). Male Sprague-Dawley (SD) rats weighing approximately 300 g were fasted overnight prior to dosing and up to 4 hours after dosing. Each example compound was dosed at a single dose at 5 mg/kg or 10 mg/kg orally by gavage to male SD rats (n=3 rats/group). The aqueous formulation contained ethyl alcohol and polyethylene glycol 300. Approximately 100 μL plasma and 0.5 g liver samples were collected from each animal either 2 hours or 24 hours after dosing. The liver samples were homogenized by hard tissue homogenizer probes (Omni International, Kennesaw, Ga.) with 4× extraction buffer. For LC-MS/MS analysis, plasma and liver samples were prepared through protein precipitation extraction and analyzed on a Scitex API 5500 or 6500 LC-MS/MS instrument (Applied Biosystems, Foster City, Calif.). Analyte was eluted on a 1.7 μm 50×2.1 mm Acquity UPLC BEH C18 column (Waters, Milford, Mass.) using mobile phase containing 0.1% formic acid and a linear gradient from 55% to 95% acetonitrile at a flow rate of 800 μL/min. A liver/plasma ratio for each compound was calculated using the liver and plasma concentrations at the corresponding time point (2 hours or 24 hours). Noncompartmental pharmacokinetic parameters were calculated using Phoenix 32 (Pharsight Corporation, Mountain View, Calif.).
To assess the liver loading potential of the compounds, rat liver/plasma ratios (Rat L/P Ratio) values were determined for example compounds and are listed below in Table 1 for 2 hour and 24 hour timepoints (Rat L/P Ratio (2h/24h)).

[3] = decrease (↓) with rifampicin pretreatment vs no pretreatment
[4] = increase (↑) with rifampicin pretreatment vs no pretreatment
[5] = male, cynomolgus monkey, plasma, cynomolgus monkeys, 5 mg/kg oral, No-Pre-treatment

Compound: COc1ccccc1[C@H](Cn1c(=O)n(C(C)(C)C(=O)NS(=O)(=O)C2(C)CC2)c(=O)c2c(C)c(-c3ncco3)sc21)O[C@@H]1C[C@H]2CC[C@@H](C1)O2 [Example 1, 2-(1-((R)-2-(((1R,3s,5S)-8-oxabicyclo[3.2.1]octan-3-yl)oxy)-2-(2-methoxyphenyl)ethyl)-5-methyl-6-(oxazol-2-yl)-2,4-dioxo-1,4-dihydrothieno[2,3-d]pyrimidin-3(2H)-yl)-2-methyl-N-((1-methylcyclopropyl)sulfonyl)propanamide]
- AUC (OATP): 48.5 µM·h
- CL/F (OATP): 2.5 mL/min/kg
- Cmax (OATP): 14 µM
- Vd/F (OATP; read-out: Vz/F): 0.44 L/kg
- plasma exposures with RIF treatment relative to monkeys not treated with RIF ([1]; 5 mg/kg oral, RIF 30 mg/kg IV): significantly increased
- CL/F Fold-Change [1, 3]: ↓ 299
- Vz/F Fold-Change [1, 3]: ↓ 165
- AUC Fold-Change [1, 4]: ↑ 165
- Cmax Fold-Change [1, 4]: ↑ 86
- AUC [1, 5]: 0.294 µM·h
- CL/F [1, 5]: 748 mL/min/kg
- Cmax [1, 5]: 0.162 µM
- Vd/F ([1]; male, cynomolgus monkey, plasma, cynomolgus monkeys, 5 mg/kg oral, No-Pre-treatment, read-out: Vz/F): 72.7 L/kg
- hepatic uptake (monkey hepatocytes): strong hepatic uptake
- EC50 (HepG2 cells): 1 nM
- L/P Ratio (2 h) ([2]; liver to plasma concentration 2 hours after dosing): 520
- L/P Ratio (24 h) ([2]; liver to plasma concentration 24 hours after dosing): 1526

Source: patent US11352371B2, “Thienopyrimidine derivatives as ACC inhibitors and uses thereof” (Gilead Sciences, Inc., priority 2019, dated 2022)
